# From US20160046618A1, “Cyclopropyl Fused Thiazin-2-Amine Compounds as Beta-Secretase Inhibitors and Methods of Use” (AMGEN INC., priority 2014, published 2016)
# Assays:
# Recombinant Cat D = Recombinant Cat D (Homo sapiens (Human), UniProt P07339); assay: In vitro enzymatic Cathepsin D (Cat D) FRET assay; format: biochemical; conditions: read-out: IC50 IP (μM) CatD
# Summary of the method: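 Cleavage of a 20 nM fluorophore/quencher peptide by CHO-expressed recombinant Cat D proceeded for one hour at pH 3.5 (0.05 M citrate, 5 mM CHAPS, 10% DMSO final). Tris addition neutralized the pH to end the reaction. Fluorescence was then measured (ex 500 nm/em 580 nm).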
# Aβ 40 in rat CSF = assay: In vivo inhibition of beta-secretase: Aβ40 reduction in rat CSF; conditions: 10 mpk, after 4 h
# Summary of the method: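 Male Sprague Dawley rats (200 g) dosed orally in 2% HPMC, 1% Tween80, pH 2.2, at 3, 10 or 30 mg/kg; CSF and brain taken 4 h later. Brain homogenate centrifuged at 355,000 g; Aβ40 measured by ECL sandwich ELISA (4G8 capture, Abeta40 C-terminal Fab detection), as % reduction versus vehicle controls.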
# human recombinant BACE1 = human recombinant BACE1 (Homo sapiens (Human), UniProt P56817); assay: In vitro enzymatic BACE1 FRET assay; format: biochemical; conditions: read-out: IC50 IP (μM) BACE1 enzyme
# Chain of human recombinant BACE1 (P56817 46-501): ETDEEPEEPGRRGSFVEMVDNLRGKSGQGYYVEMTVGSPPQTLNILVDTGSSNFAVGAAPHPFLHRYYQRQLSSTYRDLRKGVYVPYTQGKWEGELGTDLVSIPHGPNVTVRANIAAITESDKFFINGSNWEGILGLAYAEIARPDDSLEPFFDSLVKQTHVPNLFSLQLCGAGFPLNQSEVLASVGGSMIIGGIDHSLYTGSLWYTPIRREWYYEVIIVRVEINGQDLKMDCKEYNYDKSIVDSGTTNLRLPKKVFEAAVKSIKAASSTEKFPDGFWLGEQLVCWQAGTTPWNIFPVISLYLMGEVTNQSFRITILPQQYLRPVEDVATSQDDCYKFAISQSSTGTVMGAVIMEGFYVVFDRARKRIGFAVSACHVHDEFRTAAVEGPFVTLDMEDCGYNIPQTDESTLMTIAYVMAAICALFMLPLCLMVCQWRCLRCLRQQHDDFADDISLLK
# Summary of the method: (§1)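 Ni-NTA-purified recombinant enzyme incubated 1 h with 50 nM FRET peptide substrate (fluorophore and quencher flanking the BACE cleavage site). Reaction stopped with Tris buffer raising pH to neutrality; cleavage-released fluorescence read at ex 488/em 590 nm.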
# [1] = system: Aβ40 in conditioned medium of cells stably expressing Amyloid Precursor Protein (APP); assay: In vitro BACE-1 cell-based assay (Aβ40 sandwich ELISA); conditions: read-out: IC50 IP (μM) BACE1 cell
# Summary of the method: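 APP-stable cells, pre-cultured 24 h at 37° C in DMEM/10% FBS, were treated 24 h with compound in a 10-point series starting at 100 μM or 10 μM (0.1% DMSO final). Secreted Aβ40 in conditioned medium was measured by pAb40/biotin-6E10 sandwich ELISA with Europium time-resolved fluorescence; IC50 from percent inhibition versus concentration.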
# human recombinant BACE2 = human recombinant BACE2 (Homo sapiens (Human), UniProt Q9Y5Z0); assay: In vitro enzymatic BACE2 FRET assay; format: biochemical; conditions: read-out: IC50 IP (μM) BACE2 enzyme
# Chain of human recombinant BACE2 (Q9Y5Z0 63-518): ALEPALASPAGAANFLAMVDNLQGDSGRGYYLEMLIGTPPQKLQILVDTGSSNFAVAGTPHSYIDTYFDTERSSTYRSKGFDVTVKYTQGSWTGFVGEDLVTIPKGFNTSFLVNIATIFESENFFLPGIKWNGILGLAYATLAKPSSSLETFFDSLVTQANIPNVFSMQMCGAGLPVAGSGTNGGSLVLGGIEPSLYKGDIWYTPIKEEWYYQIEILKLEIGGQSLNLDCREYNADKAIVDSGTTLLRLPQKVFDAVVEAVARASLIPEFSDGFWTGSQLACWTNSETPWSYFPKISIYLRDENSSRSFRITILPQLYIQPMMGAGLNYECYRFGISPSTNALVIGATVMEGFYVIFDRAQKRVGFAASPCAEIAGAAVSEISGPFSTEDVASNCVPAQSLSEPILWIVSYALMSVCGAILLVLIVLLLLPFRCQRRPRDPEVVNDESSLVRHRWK
# Summary of the method: as §1
# Aβ 40 in rat brain = assay: In vivo inhibition of beta-secretase: Aβ40 reduction in rat brain; conditions: 10 mpk, after 4 h
# Summary of the method: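 Rats were dosed by oral gavage at up to 100 mg/kg in 2% HPMC, 1% Tween80, pH 2.2, with vehicle-only controls. Supernatant Aβ40 was measured by ECL sandwich ELISA with biotinylated-4G8 capture and C-terminal Fab40 detection.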
# Chain of Recombinant Cat D (P07339 65-412): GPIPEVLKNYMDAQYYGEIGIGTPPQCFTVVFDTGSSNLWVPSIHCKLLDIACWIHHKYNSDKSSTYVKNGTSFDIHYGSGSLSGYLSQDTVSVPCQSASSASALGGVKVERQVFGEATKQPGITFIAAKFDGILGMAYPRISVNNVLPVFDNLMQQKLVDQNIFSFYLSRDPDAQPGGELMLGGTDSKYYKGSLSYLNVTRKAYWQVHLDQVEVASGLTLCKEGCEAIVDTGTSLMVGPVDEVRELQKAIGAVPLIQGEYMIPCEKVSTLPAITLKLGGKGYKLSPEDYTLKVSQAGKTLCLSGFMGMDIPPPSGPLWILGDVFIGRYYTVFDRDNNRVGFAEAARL
SMILES,IC50 (Recombinant Cat D) [µM],% Aβ 40 reduction in rat CSF at 10 mpk (Aβ 40 in rat CSF) [%],IC50 (human recombinant BACE1) [µM],IC50 [1] [µM],IC50 (human recombinant BACE2) [µM],% Aβ 40 reduction in rat brain at 10 mpk (Aβ 40 in rat brain) [%]
"COC[C@]12C[C@H]1[C@@](C)(c1cc(NC(=O)c3ccc(OCC(F)(F)F)cn3)ccc1F)N=C(N)S2 [Example 698, N-(3-((1S,5S,6S)-3-amino-1-(methoxymethyl)-5-methyl-2-thia-4-azabicyclo[4.1.0]hept-3-en-5-yl)-4-fluorophenyl)-5-(2,2,2-trifluoroethoxy)-2-pyridinecarboxamide]",> 400,15,0.0086,0.0116,0.316,−7
"C[C@]1(c2cc(Nc3nccc4nc(OCc5ncco5)cnc34)ccc2F)N=C(N)S[C@]2(CO)[C@H]1C2(F)F [Example 705, ((1S,5S,6R)-3-amino-7,7-difluoro-5-(2-fluoro-5-((2-(1,3-oxazol-2-ylmethoxy)pyrido[3,4-b]pyrazin-5-yl)amino)phenyl)-5-methyl-2-thia-4-azabicyclo[4.1.0]hept-3-en-1-yl)methanol]",183,28,0.00186,0.0035,0.0184,1
"C#CCOc1cnc2c(Nc3ccc(F)c([C@@]4(C)N=C(N)S[C@]5(CO)[C@H]4C5(F)F)c3)nccc2n1 [Example 707, ((1S,5S,6R)-3-amino-7,7-difluoro-5-(2-fluoro-5-((2-(2-propyn-1-yloxy)pyrido[3,4-b]pyrazin-5-yl)amino)phenyl)-5-methyl-2-thia-4-azabicyclo[4.1.0]hept-3-en-1-yl)methanol]",550,27,0.000636,0.00422,0.0185,25
"C[C@]1(c2cc(NC(=O)c3cnc(OCC(F)(F)C(F)F)cn3)ccc2F)N=C(N)S[C@]2(CO)[C@H]1C2(F)F [Example 708, N-(3-((1S,5S,6R)-3-amino-7,7-difluoro-1-(hydroxymethyl)-5-methyl-2-thia-4-azabicyclo[4.1.0]hept-3-en-5-yl)-4-fluorophenyl)-5-(2,2,3,3-tetrafluoropropoxy)-2-pyrazinecarboxamide]",438,13,0.000969,0.0215,0.107,−4
"C#CCOc1cnc2c(Nc3ccc(F)c([C@@]4(C)N=C(N)S[C@]5(C(C)(C)O)[C@H]4C5(F)F)c3)nccc2n1 [Example 712, 2-((1S,5S,6R)-3-amino-7,7-difluoro-5-(2-fluoro-5-((2-(2-propyn-1-yloxy)pyrido[3,4-b]pyrazin-5-yl)amino)phenyl)-5-methyl-2-thia-4-azabicyclo[4.1.0]hept-3-en-1-yl)-2-propanol]",476,52,0.000782,0.00904,0.0516,32
"COC[C@]12C[C@H]1[C@@](C)(c1cc(Nc3nccc4cc(OCc5ncco5)cnc34)cc(F)c1F)N=C(N)S2 [Example 727, N-(3-((1S,5S,6S)-3-amino-1-(methoxymethyl)-5-methyl-2-thia-4-azabicyclo[4.1.0]hept-3-en-5-yl)-4,5-difluorophenyl)-3-(1,3-oxazol-2-ylmethoxy)-1,7-naphthyridin-8-amine]",779,38,0.00798,0.00962,0.359,18
"COC[C@]12C[C@H]1[C@@](C)(c1cc(Nc3nccc4cc(OCc5cocn5)cnc34)cc(F)c1F)N=C(N)S2 [Example 728, N-(3-((1S,5S,6S)-3-amino-1-(methoxymethyl)-5-methyl-2-thia-4-azabicyclo[4.1.0]hept-3-en-5-yl)-4,5-difluorophenyl)-3-(1,3-oxazol-4-ylmethoxy)-1,7-naphthyridin-8-amine]",859,31,0.0238,0.0127,0.553,23
"CN(C)C(=O)/C=C/[C@]12C[C@H]1[C@@](CF)(c1cc(Nc3nccc4cc(OCc5ncco5)cnc34)ccc1F)N=C(N)S2 [Example 770, (2E)-3-((1R,5S,6S)-3-amino-5-(fluoromethyl)-5-(2-fluoro-5-((3-(1,3-oxazol-2-ylmethoxy)-1,7-naphthyridin-8-yl)amino)phenyl)-2-thia-4-azabicyclo[4.1.0]hept-3-en-1-yl)-N,N-dimethyl-2-propenamide]",311,22,0.00294,0.00281,0.143,6
"C#CCOc1cnc(C(=O)Nc2ccc(F)c([C@@]3(C)N=C(N)S[C@@]4(C(=O)NC5CC5)C[C@H]43)c2)cn1 [Example 795, (1S,5S,6S)-3-amino-N-cyclopropyl-5-(2-fluoro-5-(((5-(2-propyn-1-yloxy)-2-pyrazinyl)carbonyl)amino)phenyl)-5-methyl-2-thia-4-azabicyclo[4.1.0]hept-3-en-1-carboxamide]",16.6,76,0.0003,0.000608,0.0104,70
"C[C@]1(c2cc(Nc3ncnc4cc(C#N)cnc34)cc(F)c2F)N=C(N)S[C@@]2(CF)C[C@H]21 [Example 801, 4-((3-((1S,5S,6S)-3-amino-1-(fluoromethyl)-5-methyl-2-thia-4-azabicyclo[4.1.0]hept-3-en-5-yl)-4,5-difluorophenyl)amino)pyrido[3,2-d]pyrimidine-7-carbonitrile]",145,74,0.00613,0.0137,0.0163,68
"C[C@]1(c2cc(Nc3nccc4nc(OCc5ncco5)cnc34)cc(F)c2F)N=C(N)S[C@@]2(CF)C[C@H]21 [Example 802, N-(3-((1S,5S,6S)-3-amino-1-(fluoromethyl)-5-methyl-2-thia-4-azabicyclo[4.1.0]hept-3-en-5-yl)-4,5-difluorophenyl)-2-(1,3-oxazol-2-ylmethoxy)pyrido[3,4-b]pyrazin-5-amine]",310,59,0.000992,0.00497,0.0334,50
"Cc1nc(OCc2ncco2)cnc1C(=O)Nc1cc(F)c(F)c([C@@]2(C)N=C(N)S[C@@]3(CF)C[C@H]32)c1 [Example 803, N-(3-((1S,5S,6S)-3-amino-1-(fluoromethyl)-5-methyl-2-thia-4-azabicyclo[4.1.0]hept-3-en-5-yl)-4,5-difluorophenyl)-3-methyl-5-(1,3-oxazol-2-ylmethoxy)-2-pyrazinecarboxamide]",1060,59,0.000643,0.00228,0.0157,45
"C#CCOc1cnc2c(Nc3cc(F)c(F)c([C@@]4(C)N=C(N)S[C@@]5(C(F)F)C[C@@H]45)c3)nccc2n1 [Example 805, N-(3-((1S,5S,6S)-3-amino-1-(difluoromethyl)-5-methyl-2-thia-4-azabicyclo[4.1.0]hept-3-en-5-yl)-4,5-difluorophenyl)-2-(2-propyn-1-yloxy)pyrido[3,4-b]pyrazin-5-amine]",27,59,0.000222,0.00497,0.0189,53
"C#CCOc1cnc2c(Nc3cc(F)c(F)c([C@@]4(C)N=C(N)S[C@@]5(CF)C[C@H]54)c3)nccc2n1 [Example 806, N-(3-((1S,5S,6S)-3-amino-1-(fluoromethyl)-5-methyl-2-thia-4-azabicyclo[4.1.0]hept-3-en-5-yl)-4,5-difluorophenyl)-2-(2-propyn-1-yloxy)pyrido[3,4-b]pyrazin-5-amine]",122,70,0.000489,0.00772,0.0242,65
"C[C@]1(c2cc(Nc3ncnc4cc(OCc5ncco5)cnc34)cc(F)c2F)N=C(N)S[C@@]2(CF)C[C@H]21 [Example 808, N-(3-((1S,5S,6S)-3-amino-1-(fluoromethyl)-5-methyl-2-thia-4-azabicyclo[4.1.0]hept-3-en-5-yl)-4,5-difluorophenyl)-7-(1,3-oxazol-2-ylmethoxy)pyrido[3,2-d]pyrimidin-4-amine]",127,44,0.000866,0.00111,0.0383,26
